According to BindingDB's records for doi:10.1016/j.bmcl.2004.06.037 (Alcon Research, 2004):

Target: Prostaglandin F2-alpha receptor (Mus musculus) (UniProt P43117)
Assay: Efficacy for stimulation of prostanoid FP receptor-linked phosphoinositide turnover in Swiss 3T3 mouse fibroblast cells

Chain of Prostaglandin F2-alpha receptor (Mus musculus) (P43117 whole entry, looked up): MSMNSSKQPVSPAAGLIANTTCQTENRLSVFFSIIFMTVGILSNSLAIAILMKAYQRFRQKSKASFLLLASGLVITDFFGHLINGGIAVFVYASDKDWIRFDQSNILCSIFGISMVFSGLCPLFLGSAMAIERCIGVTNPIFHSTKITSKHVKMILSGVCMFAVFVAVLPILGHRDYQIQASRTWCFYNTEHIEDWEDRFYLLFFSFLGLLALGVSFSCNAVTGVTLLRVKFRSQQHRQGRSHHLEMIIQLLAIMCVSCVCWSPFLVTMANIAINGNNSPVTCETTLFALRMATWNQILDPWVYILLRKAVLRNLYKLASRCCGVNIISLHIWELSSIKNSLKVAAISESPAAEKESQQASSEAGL

SMILES | EC50 [µM]
CC(C)OC(=O)CCC/C=C/C[C@@H]1[C@@H](/C=C/C(O)COc2cccc(C(F)(F)F)c2)[C@H](O)C[C@@H]1O (stereo partly drawn) [(E)-7-{(1R,2R,3R,5S)-3,5-Dihydroxy-2-[(E)-3-hydroxy-4-(3-trifluoromethyl-phenoxy)-but-1-enyl]-cyclopentyl}-hept-5-enoic acid isopropyl ester] | 0.0027
CCCCC[C@@H](O)/C=C/[C@H]1OC[C@H](O)[C@@H]1C/C=C\CCCC(=O)O [(Z)-7-[(2R,3S,4R)-4-Hydroxy-2-((E)-(R)-3-hydroxy-oct-1-enyl)-tetrahydro-furan-3-yl]-hept-5-enoic acid] | > 10
CCCCC[C@H](O)/C=C/[C@H]1OC[C@H](O)[C@@H]1C/C=C\CCCC(=O)O [(Z)-7-[(2R,3S,4R)-4-Hydroxy-2-((E)-(S)-3-hydroxy-oct-1-enyl)-tetrahydro-furan-3-yl]-hept-5-enoic acid] | 2.38
O=C(O)CC/C=C\CCC[C@H]1[C@@H](O)CO[C@@H]1/C=C/[C@@H](O)COc1ccccc1 [(Z)-8-[(2R,3S,4R)-4-Hydroxy-2-((E)-(R)-3-hydroxy-4-phenoxy-but-1-enyl)-tetrahydro-furan-3-yl]-oct-4-enoic acid] | 0.057
O=C(O)CCCC/C=C\C[C@H]1[C@@H](O)CO[C@@H]1/C=C/[C@@H](O)COc1ccccc1 [(Z)-8-[(2R,3S,4R)-4-Hydroxy-2-((E)-(R)-3-hydroxy-4-phenoxy-but-1-enyl)-tetrahydro-furan-3-yl]-oct-6-enoic acid] | 0.293
O=C(O)CC/C=C\CCC[C@H]1[C@@H](O)CO[C@@H]1/C=C/[C@H](O)COc1ccccc1 [(Z)-8-[(2R,3S,4R)-4-Hydroxy-2-((E)-(S)-3-hydroxy-4-phenoxy-but-1-enyl)-tetrahydro-furan-3-yl]-oct-4-enoic acid] | 0.252
O=C(O)CCCC/C=C\C[C@H]1[C@@H](O)CO[C@@H]1/C=C/[C@H](O)COc1ccccc1 [(Z)-8-[(R)-4-Hydroxy-2-((1R,2S,4S)-3-hydroxy-4-phenoxy-but-1-enyl)-tetrahydro-furan-3-yl]-oct-6-enoic acid] | 0.573
O=C(O)CC/C=C\CCC[C@H]1[C@@H](O)CO[C@@H]1/C=C/[C@@H](O)COc1cccc(Cl)c1 [(Z)-8-{(2R,3S,4R)-2-[(E)-(R)-4-(3-Chloro-phenoxy)-3-hydroxy-but-1-enyl]-4-hydroxy-tetrahydro-furan-3-yl}-oct-4-enoic acid] | 0.023
O=C(O)CCCC/C=C\C[C@H]1[C@@H](O)CO[C@@H]1/C=C/[C@@H](O)COc1cccc(Cl)c1 [(Z)-8-{(2R,3S,4R)-2-[(E)-(R)-4-(3-Chloro-phenoxy)-3-hydroxy-but-1-enyl]-4-hydroxy-tetrahydro-furan-3-yl}-oct-6-enoic acid] | 0.058
O=C(O)CC/C=C\CCC[C@H]1[C@@H](O)CO[C@@H]1/C=C/[C@H](O)COc1cccc(Cl)c1 [(Z)-8-{(2R,3S,4R)-2-[(E)-(S)-4-(3-Chloro-phenoxy)-3-hydroxy-but-1-enyl]-4-hydroxy-tetrahydro-furan-3-yl}-oct-4-enoic acid] | 0.249
O=C(O)CCCC/C=C\C[C@H]1[C@@H](O)CO[C@@H]1/C=C/[C@H](O)COc1cccc(Cl)c1 [(Z)-8-{(2R,3S,4R)-2-[(E)-(S)-4-(3-Chloro-phenoxy)-3-hydroxy-but-1-enyl]-4-hydroxy-tetrahydro-furan-3-yl}-oct-6-enoic acid] | 0.194
O=C(O)CC/C=C\CCC[C@H]1[C@@H](O)CO[C@@H]1/C=C/[C@@H](O)COc1cccc(C(F)(F)F)c1 [(Z)-8-{(2R,3S,4R)-4-Hydroxy-2-[(E)-(R)-3-hydroxy-4-(3-trifluoromethyl-phenoxy)-but-1-enyl]-tetrahydro-furan-3-yl}-oct-4-enoic acid] | 0.067
O=C(O)CCCC/C=C\C[C@H]1[C@@H](O)CO[C@@H]1/C=C/[C@@H](O)COc1cccc(C(F)(F)F)c1 [(Z)-8-{(2R,3S,4R)-4-Hydroxy-2-[(E)-(R)-3-hydroxy-4-(3-trifluoromethyl-phenoxy)-but-1-enyl]-tetrahydro-furan-3-yl}-oct-6-enoic acid] | 0.187
O=C(O)CC/C=C\CCC[C@H]1[C@@H](O)CO[C@@H]1/C=C/[C@H](O)COc1cccc(C(F)(F)F)c1 [(Z)-8-{(2R,3S,4R)-4-Hydroxy-2-[(E)-(S)-3-hydroxy-4-(3-trifluoromethyl-phenoxy)-but-1-enyl]-tetrahydro-furan-3-yl}-oct-4-enoic acid] | 0.781
O=C(O)CCCC/C=C\C[C@H]1[C@@H](O)CO[C@@H]1/C=C/[C@H](O)COc1cccc(C(F)(F)F)c1 [(Z)-8-{(2R,3S,4R)-4-Hydroxy-2-[(E)-(S)-3-hydroxy-4-(3-trifluoromethyl-phenoxy)-but-1-enyl]-tetrahydro-furan-3-yl}-oct-6-enoic acid] | 0.899
CC(C)OC(=O)CCC/C=C/C[C@@H]1[C@@H](CC[C@@H](O)CCc2ccccc2)[C@H](O)C[C@@H]1O [LATANOPROST (PHXA41)] | 0.0344
